“Also recorded” adds a separate entry of the source.
Experiments:
[1] = system: murine HCC cell line (Hepa1-6); experiment: AldeRed assay in Hepa1-6 cells; assay type: cell-based, mouse; details: murine HCC cell line Hepa1-6, 24 hours
Protocol: Cultures of tumor cells or primary monocyte-derived cells were treated with C86, C91, C99, BMS 493 (Tocris, 3509) or Win 18446 (Tocris, 4736) at a time and concentration indicated in corresponding figure legends.
The AldeRed assay (EMD Millipore) was performed according to manufacturer's instructions to identify cells with ALDH activity. In brief, single-cell suspensions of Huh7, Huh1, SNU449, SNU398, HEP3B, PLC, Hepa 1-6, Hep55, and AL458A cultured cells or single-cell suspension generated from enzymatic digestion of tumors generated from transplantation of these cells in mice (as indicated in figure legends) were incubated with a fluorescent and non-toxic ALDH substrate (AldeRed 588-A); the fluorescent product accumulates in cells proportional to their ALDH activity. The amount of fluorescence produced is measured by flow cytometry. The ALDH inhibitor diethylaminobenzaldehyde (DEAB, provided with the AldeRed assay kit) was used as a negative control for background fluorescence assessment.

SNU398 cells = experiment: RT-qPCR of Raldh1, Raldh2 and Raldh3 transcripts in SNU398 cells; assay type: cell-based, human; details: SNU398, 24 hours
Protocol: FIG. 21A: Transcript levels (RT-qPCR) of Raldh1, Raldh2 and Raldh3 in SNU398 cells treated with different concentrations of C86 or C91 for 24 hours. FIG. 21B: Homology modeling identifies differences in amino acid residues between human and murine RALDH1 at sites predicted to bind RALDH1-INH. FIG. 21C: SNU398 cells were treated with various concentrations of C86 or C91 for 24 hours. Cell viability was measured by flow cytometry (FCM) with 7-AAD staining (Y-axis indicates percentage of 7-AAD negative cells).
Total RNA from mouse tissue samples and in vitro cultured cells was isolated using GenElute Mammalian Total RNA Miniprep Kit (Sigma) following the manufacturer's protocol. Total RNA from human FFPE samples was isolated by using Quick-RNA FFPE Miniprep Kit (Zymo Research) using the manufacturer's protocol. 1000 ng of RNA was used for reverse transcription using High Capacity RNA to cDNA Kit (Life Technologies). The cDNA product was 10× diluted. 2.5 μL of this cDNA was used for qPCR for each sample. Three or more replicates were used for each reaction. […] Expression fold was calculated as 2^−(CT target gene−CT housekeeping gene). Quantitative PCRs were run on a Viia 7 real time PCR system (ThermoFisher). The following target and housekeeping genes were measured using the commercially available TaqMan probes (ThermoFisher): […]

Cyclooxygenase COX-1 = target: T1, Cyclooxygenase COX-1 (Homo sapiens, UniProt P23219); experiment: Safetyscreen: COX-1; assay type: biochemical; details: read-out: % Inh. Cyclooxygenase COX-1
T1 construct: Eurofins Cerep Panlabs (contract panel)

Cyclooxygenase COX-2 = target: T2, Cyclooxygenase COX-2 (Homo sapiens, UniProt P35354); experiment: Safetyscreen: COX-2; assay type: biochemical; details: read-out: % Inh. Cyclooxygenase COX-2
T2 construct: Eurofins Cerep Panlabs (contract panel)

Adenosine A1 = target: T3, Adenosine A1 (Homo sapiens, UniProt P30542); experiment: Safetyscreen: Adenosine A1; assay type: binding; details: read-out: % Inh. Adenosine A1
T3 construct: Eurofins Cerep Panlabs (contract panel)

Adrenergic α1A = target: T4, Adrenergic α1A (Rattus norvegicus, UniProt P43140); experiment: Safetyscreen: Adrenergic α1A; assay type: binding; details: read-out: % Inh. Adrenergic α1A
T4 construct: Eurofins Cerep Panlabs (contract panel)

Adrenergic α1D = target: T5, Adrenergic α1D (Homo sapiens, UniProt P25100); experiment: Safetyscreen: Adrenergic α1D; assay type: binding; details: read-out: % Inh. Adrenergic α1D
T5 construct: Eurofins Cerep Panlabs (contract panel)

[2] = system: Calcium Channel L-Type, Benzothiazepine; experiment: Safetyscreen: Ca channel L-type, benzothiazepine; assay type: binding, rat; details: 10 μM
[3] = system: Calcium Channel L-Type, Phenylalkylamine; experiment: Safetyscreen: Ca channel L-type, phenylalkylamine; assay type: binding, rat; details: 10 μM
Glutamate, NMDA, Agonism = experiment: Safetyscreen: NMDA, Agonism; assay type: binding, rat; details: 10 μM
[4] = system: Glycine, Strychnine-Sensitive; experiment: Safetyscreen: Glycine, Strychnine-Sensitive; assay type: binding, rat; details: 10 μM
[5] = target: T6, Leukotriene, Cysteinyl CysLT1 (Homo sapiens, UniProt Q9Y271); experiment: Safetyscreen: CysLT1; assay type: binding; details: read-out: % Inh. Leukotriene, Cysteinyl CysLT1
T6 construct: purchased Eurofins Cereps Panlabs

Opiate κ(OP2, KOP) = target: T7, Opiate κ(OP2, KOP) (Homo sapiens, UniProt P41145); experiment: Safetyscreen: Opiate κ; assay type: binding; details: read-out: % Inh. Opiate κ(OP2, KOP)
T7 construct: Eurofins Cereps Panlabs (contract panel)

Potassium Channel [KATP] = target: T8, Potassium Channel [KATP] (Cricetus cricetus, UniProt Q09427); experiment: Safetyscreen: Potassium Channel KATP; assay type: binding, hamster; details: read-out: % Inh. Potassium Channel [KATP]
T8 construct: Eurofins Cereps Panlabs (contract panel)

PPARγ = target: T9, PPARγ (Homo sapiens, UniProt P37231); experiment: Safetyscreen: PPARγ; assay type: binding
T9 construct: Eurofins Cereps Panlabs (contract panel)

[6] = target: T10, Serotonin (5-Hydroxytryptamine) 5-HT2A (Homo sapiens, UniProt P28223); experiment: Safetyscreen: 5-HT2A; assay type: binding; details: read-out: % Inh. Serotonin (5-Hydroxytryptamine) 5-HT2A
T10 construct: Eurofins Cereps Panlabs (contract panel)

[7] = target: T11, Serotonin (5-Hydroxytryptamine) 5-HT3 (Homo sapiens, UniProt P46098); experiment: Safetyscreen: 5-HT3; assay type: binding; details: read-out: % Inh. Serotonin (5-Hydroxytryptamine) 5-HT3
T11 construct: Eurofins Cereps Panlabs (contract panel)

Transporter, Adenosine = experiment: Safetyscreen: Adenosine transporter; assay type: binding, guinea pig; details: 10 μM
[8] = target: T12, Transporter, Dopamine (DAT) (Homo sapiens, UniProt Q01959); experiment: Safetyscreen: DAT; assay type: binding; details: read-out: % Inh. Transporter, Dopamine (DAT)
T12 construct: purchased Eurofins Cereps Panlabs

Transporter, GABA = target: T13, Transporter, GABA (Rattus norvegicus, UniProt P23978); experiment: Safetyscreen: GABA transporter; assay type: binding; details: read-out: % Inh. Transporter, GABA
T13 construct: purchased Eurofins Cereps Panlabs

T5 sequence (P25100 whole entry): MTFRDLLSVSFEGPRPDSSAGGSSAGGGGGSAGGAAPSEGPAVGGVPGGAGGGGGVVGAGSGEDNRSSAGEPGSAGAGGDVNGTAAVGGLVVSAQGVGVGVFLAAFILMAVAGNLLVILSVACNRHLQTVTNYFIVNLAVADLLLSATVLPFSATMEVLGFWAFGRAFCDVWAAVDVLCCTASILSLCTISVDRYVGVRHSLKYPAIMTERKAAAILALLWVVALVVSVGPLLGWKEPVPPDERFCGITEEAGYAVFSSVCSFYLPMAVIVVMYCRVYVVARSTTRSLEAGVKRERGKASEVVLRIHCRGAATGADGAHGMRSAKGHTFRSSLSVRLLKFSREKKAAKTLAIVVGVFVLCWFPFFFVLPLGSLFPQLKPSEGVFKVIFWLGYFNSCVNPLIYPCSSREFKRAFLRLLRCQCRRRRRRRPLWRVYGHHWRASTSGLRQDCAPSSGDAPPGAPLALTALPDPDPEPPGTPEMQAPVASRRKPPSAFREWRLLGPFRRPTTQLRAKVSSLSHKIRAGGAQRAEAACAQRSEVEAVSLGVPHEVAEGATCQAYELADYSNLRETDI
T11 sequence (P46098 24-478): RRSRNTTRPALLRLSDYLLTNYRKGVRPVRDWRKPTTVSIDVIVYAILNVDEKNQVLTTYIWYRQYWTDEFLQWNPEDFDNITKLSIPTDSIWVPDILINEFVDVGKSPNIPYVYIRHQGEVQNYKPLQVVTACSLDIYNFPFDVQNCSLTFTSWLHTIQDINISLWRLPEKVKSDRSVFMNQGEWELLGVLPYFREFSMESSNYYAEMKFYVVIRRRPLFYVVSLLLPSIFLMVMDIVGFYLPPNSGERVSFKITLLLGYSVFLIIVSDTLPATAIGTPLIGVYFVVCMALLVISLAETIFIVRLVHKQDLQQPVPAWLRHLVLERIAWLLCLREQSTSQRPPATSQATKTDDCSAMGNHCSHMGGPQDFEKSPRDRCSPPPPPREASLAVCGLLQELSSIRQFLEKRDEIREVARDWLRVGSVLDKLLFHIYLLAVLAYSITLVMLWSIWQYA
T4 sequence (P43140 whole entry): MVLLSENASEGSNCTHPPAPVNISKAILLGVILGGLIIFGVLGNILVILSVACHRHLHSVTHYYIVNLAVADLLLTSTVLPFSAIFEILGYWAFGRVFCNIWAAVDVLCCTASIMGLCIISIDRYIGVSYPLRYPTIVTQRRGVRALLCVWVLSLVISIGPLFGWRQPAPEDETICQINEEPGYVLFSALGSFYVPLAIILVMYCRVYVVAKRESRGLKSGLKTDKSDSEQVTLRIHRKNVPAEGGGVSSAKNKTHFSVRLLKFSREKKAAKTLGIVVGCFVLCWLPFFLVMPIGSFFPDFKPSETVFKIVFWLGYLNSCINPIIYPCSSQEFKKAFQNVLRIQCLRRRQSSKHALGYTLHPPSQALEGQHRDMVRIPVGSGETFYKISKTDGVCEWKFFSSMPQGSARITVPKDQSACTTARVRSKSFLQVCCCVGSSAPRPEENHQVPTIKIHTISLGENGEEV
T9 sequence (P37231 whole entry): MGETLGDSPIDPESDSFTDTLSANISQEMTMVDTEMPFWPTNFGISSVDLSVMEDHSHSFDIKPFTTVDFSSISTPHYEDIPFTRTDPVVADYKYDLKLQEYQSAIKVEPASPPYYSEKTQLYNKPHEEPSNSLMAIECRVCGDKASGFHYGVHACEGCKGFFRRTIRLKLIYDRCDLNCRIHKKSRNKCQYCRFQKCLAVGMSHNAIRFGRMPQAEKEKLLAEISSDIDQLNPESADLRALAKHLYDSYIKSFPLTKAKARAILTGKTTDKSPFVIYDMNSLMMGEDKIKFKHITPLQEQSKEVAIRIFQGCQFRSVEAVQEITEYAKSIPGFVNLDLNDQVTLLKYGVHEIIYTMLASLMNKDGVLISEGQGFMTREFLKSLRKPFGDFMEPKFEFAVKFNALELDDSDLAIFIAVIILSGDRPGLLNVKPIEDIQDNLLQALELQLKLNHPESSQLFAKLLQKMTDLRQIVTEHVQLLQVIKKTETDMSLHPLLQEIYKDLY
T7 sequence (P41145 whole entry): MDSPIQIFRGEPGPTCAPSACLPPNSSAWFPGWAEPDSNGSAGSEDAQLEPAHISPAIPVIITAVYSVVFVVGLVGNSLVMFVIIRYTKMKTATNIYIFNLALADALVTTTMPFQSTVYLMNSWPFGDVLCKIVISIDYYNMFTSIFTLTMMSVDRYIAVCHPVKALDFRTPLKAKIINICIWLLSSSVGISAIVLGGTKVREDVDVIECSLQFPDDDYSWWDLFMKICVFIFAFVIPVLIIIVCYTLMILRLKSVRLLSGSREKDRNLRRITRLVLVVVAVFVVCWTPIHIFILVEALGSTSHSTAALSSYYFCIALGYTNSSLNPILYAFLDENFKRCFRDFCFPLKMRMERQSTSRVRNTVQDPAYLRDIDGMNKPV
T10 sequence (P28223 whole entry): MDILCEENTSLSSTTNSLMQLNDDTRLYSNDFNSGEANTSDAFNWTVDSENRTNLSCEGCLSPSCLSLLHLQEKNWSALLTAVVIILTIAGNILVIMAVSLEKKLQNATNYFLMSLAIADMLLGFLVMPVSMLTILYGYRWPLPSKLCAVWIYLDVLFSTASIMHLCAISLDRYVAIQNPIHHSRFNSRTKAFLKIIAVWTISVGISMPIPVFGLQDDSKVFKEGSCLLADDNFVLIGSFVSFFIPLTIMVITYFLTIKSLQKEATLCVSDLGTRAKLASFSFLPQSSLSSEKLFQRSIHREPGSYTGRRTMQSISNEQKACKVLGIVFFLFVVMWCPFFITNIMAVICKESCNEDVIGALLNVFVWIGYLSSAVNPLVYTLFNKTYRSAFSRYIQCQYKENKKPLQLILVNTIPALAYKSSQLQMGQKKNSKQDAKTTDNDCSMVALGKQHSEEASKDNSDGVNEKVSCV
T8 sequence (Q09427 whole entry): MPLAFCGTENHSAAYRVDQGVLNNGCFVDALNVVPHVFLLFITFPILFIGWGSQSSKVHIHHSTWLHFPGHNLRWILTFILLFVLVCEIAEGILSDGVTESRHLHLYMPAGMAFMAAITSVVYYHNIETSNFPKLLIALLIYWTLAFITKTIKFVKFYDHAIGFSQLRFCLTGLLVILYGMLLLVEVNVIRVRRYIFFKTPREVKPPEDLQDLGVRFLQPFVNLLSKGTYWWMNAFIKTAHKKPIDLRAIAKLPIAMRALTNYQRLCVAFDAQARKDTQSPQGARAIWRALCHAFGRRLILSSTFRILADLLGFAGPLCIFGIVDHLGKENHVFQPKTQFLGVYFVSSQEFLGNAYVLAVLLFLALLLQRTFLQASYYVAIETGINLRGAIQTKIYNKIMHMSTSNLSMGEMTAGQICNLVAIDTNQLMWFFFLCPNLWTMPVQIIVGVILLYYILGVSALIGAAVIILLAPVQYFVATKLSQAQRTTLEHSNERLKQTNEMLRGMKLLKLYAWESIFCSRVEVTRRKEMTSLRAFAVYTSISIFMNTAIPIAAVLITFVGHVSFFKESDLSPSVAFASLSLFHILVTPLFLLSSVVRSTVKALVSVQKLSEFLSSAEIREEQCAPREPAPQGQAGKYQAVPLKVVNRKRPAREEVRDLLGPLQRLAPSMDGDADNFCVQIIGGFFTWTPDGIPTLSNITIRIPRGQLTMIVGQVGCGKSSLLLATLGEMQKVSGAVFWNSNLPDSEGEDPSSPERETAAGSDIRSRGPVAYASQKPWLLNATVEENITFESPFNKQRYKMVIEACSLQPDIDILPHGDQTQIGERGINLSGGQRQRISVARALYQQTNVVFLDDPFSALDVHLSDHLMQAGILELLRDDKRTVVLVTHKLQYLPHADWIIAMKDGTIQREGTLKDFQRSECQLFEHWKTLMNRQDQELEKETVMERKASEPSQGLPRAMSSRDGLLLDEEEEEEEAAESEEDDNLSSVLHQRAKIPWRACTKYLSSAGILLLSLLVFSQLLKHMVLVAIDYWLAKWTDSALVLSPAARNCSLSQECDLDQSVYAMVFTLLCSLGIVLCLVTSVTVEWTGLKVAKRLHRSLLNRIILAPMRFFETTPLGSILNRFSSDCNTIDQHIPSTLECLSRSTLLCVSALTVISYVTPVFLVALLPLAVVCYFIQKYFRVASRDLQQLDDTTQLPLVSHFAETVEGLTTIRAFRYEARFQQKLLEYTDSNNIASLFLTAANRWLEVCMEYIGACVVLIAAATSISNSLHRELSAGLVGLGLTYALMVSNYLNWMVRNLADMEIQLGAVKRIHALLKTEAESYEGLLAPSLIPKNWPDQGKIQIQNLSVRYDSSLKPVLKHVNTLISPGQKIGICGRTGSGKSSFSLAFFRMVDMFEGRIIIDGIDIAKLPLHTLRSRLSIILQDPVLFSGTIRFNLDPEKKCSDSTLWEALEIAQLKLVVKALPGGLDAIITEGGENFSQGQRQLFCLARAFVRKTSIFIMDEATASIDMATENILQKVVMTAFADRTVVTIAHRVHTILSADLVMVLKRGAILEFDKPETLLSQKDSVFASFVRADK
T1 sequence (P23219 24-599): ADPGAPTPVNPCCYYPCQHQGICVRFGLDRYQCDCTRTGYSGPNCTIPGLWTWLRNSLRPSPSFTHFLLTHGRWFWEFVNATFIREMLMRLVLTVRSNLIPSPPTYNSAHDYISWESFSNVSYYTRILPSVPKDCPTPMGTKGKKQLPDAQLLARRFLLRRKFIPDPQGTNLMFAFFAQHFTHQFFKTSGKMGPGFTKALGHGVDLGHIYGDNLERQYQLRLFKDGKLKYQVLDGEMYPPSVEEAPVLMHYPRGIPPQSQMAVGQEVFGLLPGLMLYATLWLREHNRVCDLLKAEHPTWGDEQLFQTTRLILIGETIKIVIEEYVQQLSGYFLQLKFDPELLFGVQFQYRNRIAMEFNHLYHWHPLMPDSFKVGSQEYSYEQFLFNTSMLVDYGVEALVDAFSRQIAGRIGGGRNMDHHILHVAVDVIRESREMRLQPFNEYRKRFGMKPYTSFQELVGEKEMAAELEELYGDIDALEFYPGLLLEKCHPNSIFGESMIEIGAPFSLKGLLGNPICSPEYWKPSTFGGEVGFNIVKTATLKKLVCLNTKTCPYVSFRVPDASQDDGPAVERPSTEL

CS(=O)(=O)N1CCN(C(=O)c2cnc3ccc(F)cc3c2N2CCC(C#N)(c3ccccc3)CC2)CC1 [Compound C-86, 1-(6-fluoro-3-(4-(methylsulfonyl)piperazine-1-carbonyl)quinolin-4-yl)-4-phenylpiperidine-4-carbonitrile]
AldeRed fluorescence [1]: no change in AldeRed fluorescence; also recorded: failed to reduce AldeRed fluorescence
transcription of other RALDH isozymes (SNU398 cells): did not lead to compensatory increases in transcription
inhibition at 10 µM (Cyclooxygenase COX-1): 6%
inhibition at 10 µM (Cyclooxygenase COX-2): 0%
inhibition at 10 µM (Adenosine A1): 4%
inhibition at 10 µM (Adrenergic α1A): 6%
inhibition at 10 µM (Adrenergic α1D): 6%
% Inh. Calcium Channel L-Type, Benzothiazepine [2]: −3%
% Inh. Calcium Channel L-Type, Phenylalkylamine [3]: 21%
% Inh. Glutamate, NMDA, Agonism (Glutamate, NMDA, Agonism): 2%
% Inh. Glycine, Strychnine-Sensitive [4]: 23%
inhibition at 10 µM [5]: 5%
inhibition at 10 µM (Opiate κ(OP2, KOP)): 41%
inhibition at 10 µM (Potassium Channel [KATP]): 28%
inhibition at 10 µM (PPARγ): 12%
inhibition at 10 µM [6]: 36%
inhibition at 10 µM [7]: 2%
% Inh. Transporter, Adenosine (Transporter, Adenosine): 56%
inhibition at 10 µM [8]: 8%
inhibition at 10 µM (Transporter, GABA): 4%

Reference: patent US20260248799A1, “COMBINATIONS OF RETINALDEHYDE DEHYDROGENASE 1 (RALDH1) INHIBITORS AND IMMUNOSTIMULATORS AND METHODS USING SAME” (The Trustees of the University of Pennsylvania, priority 2023, published 2026)
